From patent publication US10112926B2 (priority 2014, dated 2018) come the findings set out here.

Counter-ions that a name gives are not always drawn.

The target in one assay is Vps34 (Homo sapiens (Human), UniProt Q8NEB9). The following applies: read-out: Assay C VPS34 IC50.
Chain of Vps34 (Q8NEB9 whole entry): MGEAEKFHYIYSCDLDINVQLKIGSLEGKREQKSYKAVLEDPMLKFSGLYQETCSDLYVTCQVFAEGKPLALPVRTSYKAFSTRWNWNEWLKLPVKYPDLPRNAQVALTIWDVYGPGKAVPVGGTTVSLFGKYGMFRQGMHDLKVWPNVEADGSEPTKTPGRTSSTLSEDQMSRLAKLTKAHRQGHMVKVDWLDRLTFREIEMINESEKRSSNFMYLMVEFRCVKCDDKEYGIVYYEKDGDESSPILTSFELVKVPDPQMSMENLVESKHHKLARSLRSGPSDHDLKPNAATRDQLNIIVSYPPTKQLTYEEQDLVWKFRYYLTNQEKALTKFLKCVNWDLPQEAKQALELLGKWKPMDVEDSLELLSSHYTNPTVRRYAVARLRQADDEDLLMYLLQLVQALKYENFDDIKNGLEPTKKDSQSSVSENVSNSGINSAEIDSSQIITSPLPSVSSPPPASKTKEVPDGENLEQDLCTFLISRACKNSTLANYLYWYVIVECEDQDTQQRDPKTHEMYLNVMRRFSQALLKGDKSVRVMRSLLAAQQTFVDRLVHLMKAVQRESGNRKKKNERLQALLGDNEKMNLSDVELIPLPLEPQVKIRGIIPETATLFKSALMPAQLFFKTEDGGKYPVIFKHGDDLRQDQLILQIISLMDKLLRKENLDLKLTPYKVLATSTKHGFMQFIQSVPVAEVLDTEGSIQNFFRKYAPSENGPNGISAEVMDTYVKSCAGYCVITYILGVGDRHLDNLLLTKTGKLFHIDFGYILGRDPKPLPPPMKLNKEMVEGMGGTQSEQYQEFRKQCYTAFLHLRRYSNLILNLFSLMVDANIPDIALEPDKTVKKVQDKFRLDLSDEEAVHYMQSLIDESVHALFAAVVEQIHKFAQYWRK
As for `Cc1ncc(-c2cc(-c3cc(S(=O)(=O)NCCCO)ccc3C)cnc2N)o1` [Example 104.6, 3-(6-amino-5-(2-methyloxazol-5-yl)pyridin-3-yl)-N-(3-hydroxypropyl)-4-methylbenzenesulfon-amide], the IC50 stood at 1.9 µM.

With `Cc1cc(-c2cc(-c3cc(S(=O)(=O)N4CCOC[C@@H]4C)ccc3C)cnc2N)on1` [Example 19.5, (S)-5-(2-methyl-5-((3-methylmorpholino)sulfon-yl)phenyl)-3-(3-methylisoxazol-5-yl)pyridin-2-amine trifluoroacetic acid salt], the IC50 was more than 10 µM.

For the molecule `Cc1ncc(-c2cc(-c3cc(S(=O)(=O)NCC4CC(O)C4)ccc3C)cnc2N)o1` (stereo not shown) [Example 104.1, 3-(6-amino-5-(2-methyloxazol-5-yl)pyridin-3-yl)-N-((3-hydroxycyclobutyl)methyl)-4-methylbenzenesulfon-amide], the IC50 stood at 1.1 µM.

On to `Cc1cc(-c2cc(-c3cc(S(=O)(=O)NCC4(CO)CCCC4)ccc3C)cnc2N)on1` [Example 37.23, 3-(6-Amino-5-(3-methylisoxazol-5-yl)pyridin-3-yl)-N-((1-(hydroxymethyl)cyclopentyl)methyl)-4-methylbenzenesulfonamide], for which the IC50 was more than 10 µM.

The target of the next assay is PI 4-kinase beta (Homo sapiens (Human), UniProt Q9UBF8). The note with it: read-out: Assay D PI4Kβ IC50.
Chain of PI 4-kinase beta (Q9UBF8 whole entry): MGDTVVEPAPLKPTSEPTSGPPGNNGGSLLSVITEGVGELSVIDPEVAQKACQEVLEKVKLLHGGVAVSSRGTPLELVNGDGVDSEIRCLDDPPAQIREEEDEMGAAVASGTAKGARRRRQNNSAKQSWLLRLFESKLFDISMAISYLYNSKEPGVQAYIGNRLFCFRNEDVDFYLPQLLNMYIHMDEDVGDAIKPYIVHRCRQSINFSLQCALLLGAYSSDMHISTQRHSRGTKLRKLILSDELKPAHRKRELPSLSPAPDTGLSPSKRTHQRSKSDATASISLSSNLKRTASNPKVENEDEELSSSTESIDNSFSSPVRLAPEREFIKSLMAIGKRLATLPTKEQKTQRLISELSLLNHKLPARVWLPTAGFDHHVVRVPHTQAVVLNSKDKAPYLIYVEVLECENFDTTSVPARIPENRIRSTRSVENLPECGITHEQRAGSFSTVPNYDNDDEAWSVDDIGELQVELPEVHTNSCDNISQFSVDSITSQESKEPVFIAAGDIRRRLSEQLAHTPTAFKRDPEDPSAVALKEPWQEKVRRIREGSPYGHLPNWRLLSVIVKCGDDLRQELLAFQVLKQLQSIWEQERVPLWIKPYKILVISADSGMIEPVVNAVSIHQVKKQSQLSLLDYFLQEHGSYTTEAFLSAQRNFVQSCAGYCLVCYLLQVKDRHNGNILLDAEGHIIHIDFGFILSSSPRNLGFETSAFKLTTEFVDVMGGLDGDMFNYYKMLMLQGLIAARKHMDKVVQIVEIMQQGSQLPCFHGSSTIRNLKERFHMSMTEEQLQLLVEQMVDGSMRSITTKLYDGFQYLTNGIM
`Cc1noc(-c2cc(-c3cc(S(=O)(=O)NC[C@H]4CCCO4)ccc3C)cnc2N)n1` [Example 37.5, (R)-3-(6-Amino-5-(3-methyl-1,2,4-oxadiazol-5-yl)pyridin-3-yl)-4-methyl-N-((tetrahydrofuran-2-yl)methyl)benzenesulfonamide]: the IC50 was found to be 8 µM.

As for `COCC1CCN(S(=O)(=O)c2ccc(C)c(-c3cnc(N)c(-c4cc(C)no4)c3)c2)CC1` [Example 19.18, 5-(5-((4-(methoxymethyl)piperidin-1-yl)sulfonyl)-2-methylphenyl)-3-(3-methylisoxazol-5-yl)pyridin-2-amine trifluoroacetic acid salt], the IC50 was 3.8 µM.

Take `Cc1noc(-c2cc(-c3cc(S(=O)(=O)NC4CCN(C(C)C)CC4)ccc3C)cnc2N)n1` [Example 37.34, 3-(6-Amino-5-(3-methyl-1,2,4-oxadiazol-5-yl)pyridin-3-yl)-N-(1-isopropylpiperidin-4-yl)-4-methylbenzenesulfonamide]: the IC50 is more than 10 µM.

Regarding `Cc1noc(-c2cc(-c3cc(S(=O)(=O)N4CC[C@H](O)C4)ccc3C)cnc2N)n1` [Example 37.32, (S)-1-((3-(6-Amino-5-(3-methyl-1,2,4-oxadiazol-5-yl)pyridin-3-yl)-4-methylphenyl)sulfonyl)pyrrolidin-3-ol hydrochloride], the half-inhibitory concentration (IC50) came to 8.5 µM.

With `Cc1cc(-c2cc(-c3cc(S(=O)(=O)N4CCNC(=O)C4)ccc3C)cnc2N)on1` [Example 19.17, 4-((3-(6-amino-5-(3-methylisoxazol-5-yl)pyridin-3-yl)-4-methylphenyl)sulfonyl) piperazin-2-one trifluoroacetic acid salt], the IC50 was found to be 1.4 µM.

With `Cc1ncc(-c2cc(-c3cc(S(=O)(=O)NCC(C)(C)CO)ccc3C)cnc2N)o1` [Example 104.2, 3-(6-amino-5-(2-methyloxazol-5-yl)pyridin-3-yl)-N-(3-hydroxy-2,2-dimethylpropyl)-4-methylbenzenesulfon-amide], the IC50 was found to be 1.1 µM.

For `Cc1ncc(-c2cc(-c3cc(S(=O)(=O)NCCO)ccc3C)cnc2N)o1` [Example 104.5, 3-(6-amino-5-(2-methyloxazol-5-yl)pyridin-3-yl)-N-(2-hydroxyethyl)-4-methylbenzenesulfon-amide], the concentration for half-maximal inhibition (IC50) was determined as 3.1 µM.

Take `COC1(C)CN(S(=O)(=O)c2ccc(C)c(-c3cnc(N)c(-c4cc(C)no4)c3)c2)C1` [Example 37.20, 5-(5-((3-Methoxy-3-methylazetidin-yl)sulfonyl)-2-methylphenyl)-3-(3-methylisoxazol-5-yl)pyridin-2-amine]: the IC50 was determined as 5.1 µM.

On to `CONS(=O)(=O)c1ccc(C)c(-c2cnc(N)c(-c3nc(C)no3)c2)c1` [Example 46, 3-(6-Amino-5-(3-methyl-1,2,4-oxadiazol-5-yl)pyridin-3-yl)-N-methoxy-4-methylbenzenesulfonamide], for which the IC50 was more than 10 µM.

Usually IC50 stands for the concentration that inhibits the measured activity by half.
